Experimental data reported in patent US9228020B2, “Compositions and methods for diagnosing and treating cancer” (OncoMed Pharmaceuticals, Inc., priority 2006, dated 2016).
“Also recorded” adds a separate entry of the source.

Key:
UM-C4 colon tumor cells = test: UM-C4 xenograft, combination with fluorouracil; format: in vivo, NOD/SCID mice; details: day 46
Description: In certain embodiments, anti-DLL4 antibodies were analyzed in combination with chemotherapy for the ability to reduce growth of UM-C4 colon tumor cells in vivo. Dissociated UM-C4 cells (10,000 per animal) were injected subcutaneously into the right flank region of 6-8 week old NOD/SCID mice. The day after tumor cell injection, animals were injected intraperitoneal (i.p.) with 10 mg/kg murine 21M18 anti-DLL4 antibodies or PBS two times per week for the duration of the experiment with or without concurrent treatment with the anti-metabolite chemotherapy agent fluorouracil (5-FU) administered one time per week. Tumor growth was monitored weekly until growth was detected, after which point tumor growth was measured twice weekly for a total of 8 weeks.

OMP-C8 tumor cells = test: OMP-C8 colon tumor xenograft growth prevention, combination with Irinotecan; format: in vivo, NOD/SCID mice; details: 21M18 10 mg/kg twice per week; Irinotecan 7.5 mg/kg weekly; n=10 per group
Description: In certain embodiments, anti-DLL4 antibodies were tested in combination with the chemotherapeutic Irinotecan. In some embodiments, dissociated OMP-C8 tumor cells (10,000 per animal) were injected subcutaneously into the right flank region of 6-8 week old NOD/SCID mice. The day after tumor cell injection, animals were injected intraperitoneal (i.p.) with 10 mg/kg murine 21M18 anti-DLL4 antibodies or control antibody two times per week for the duration of the experiment with or without concurrent treatment with the chemotherapy agent Irinotecan administered one time per week at a dosage of 7.5 mg/kg. Tumor growth was monitored weekly until growth was detected, after which point tumor growth was measured twice weekly. […] In certain embodiments, humanized H7L2 21M18 anti-DLL4 antibodies were tested in combination with Irinotecan. In some embodiments, dissociated C8 tumor cells (10,000 per animal) were injected subcutaneously into the right flank region of 6-8 week old NOD/SCID mice. […] Tumor growth was monitored weekly until growth was detected, after which point tumor growth was measured twice weekly.

C8 cells = test: Established C8 colon tumors, combination with Irinotecan; format: in vivo, NOD/SCID mice; details: treatment from approximately 60 mm^3; 21M18 10 mg/kg two times per week; Irinotecan 7.5 mg/kg one time per week
Description: In some embodiments, combination anti-DLL4 murine 21M18 and Irinotecan treatment was used to treat established colon tumors. Dissociated C8 cells (10,000 per animal) were injected subcutaneously into the right flank region of 6-8 week old NOD/SCID mice. When the injected cells produced tumors of approximately 60 mm^3, treatment was commenced. Animals were injected intraperitoneal (i.p.) with 10 mg/kg murine 21M18 anti-DLL4 antibodies or a control two times per week for the duration of the experiment with or without concurrent treatment with the chemotherapy agent Irinotecan administered one time per week at a dosage of 7.5 mg/kg.

human DLL4 = human DLL4 (Homo sapiens, UniProt Q9NR61); test: OMP-C11 tumor cell colonies overlaid with 3T3-DLL4 cells, HES1:ATOH1 expression; format: cell-based; parameters: expressed in transfected cells; host or cells: 3T3 cells; details: 5 μM
Description: In some embodiments, mouse lineage-depleted OMP-C11 tumor cell colonies were established using culture conditions known to maintain tumorigenic cells in vitro. These tumor cell colonies were overlaid with 3T3 cells without (3T3) or including human DLL4 (DLL4) overexpressed on the cell surface in the presence or absence of 10 μg/mL murine 21M18 or 5 μM gamma-secretase inhibitor (GSI; i.e. DBZ). A no overlay control was also included.

Chain of human DLL4 (Q9NR61 27-685): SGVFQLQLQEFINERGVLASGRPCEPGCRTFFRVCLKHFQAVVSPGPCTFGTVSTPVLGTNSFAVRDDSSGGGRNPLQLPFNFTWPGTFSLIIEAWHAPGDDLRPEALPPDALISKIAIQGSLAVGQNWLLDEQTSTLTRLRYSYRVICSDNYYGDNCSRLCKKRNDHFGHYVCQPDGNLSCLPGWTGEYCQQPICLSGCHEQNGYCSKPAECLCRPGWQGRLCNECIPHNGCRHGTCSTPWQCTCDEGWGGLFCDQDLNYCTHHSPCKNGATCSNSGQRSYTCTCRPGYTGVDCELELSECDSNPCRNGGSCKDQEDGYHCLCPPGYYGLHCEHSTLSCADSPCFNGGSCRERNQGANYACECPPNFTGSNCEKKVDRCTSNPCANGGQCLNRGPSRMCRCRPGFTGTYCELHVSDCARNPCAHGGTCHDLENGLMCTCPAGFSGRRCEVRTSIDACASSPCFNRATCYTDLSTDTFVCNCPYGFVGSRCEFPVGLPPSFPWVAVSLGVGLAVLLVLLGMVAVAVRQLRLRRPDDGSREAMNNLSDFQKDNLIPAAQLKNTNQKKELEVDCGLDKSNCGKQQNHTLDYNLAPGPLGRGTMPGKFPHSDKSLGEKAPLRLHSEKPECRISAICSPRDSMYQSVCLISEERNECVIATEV

Structure (SMILES): O=c1[nH]cc(F)c(=O)[nH]1 [5-FU, fluorouracil, reference compound]
- tumor size compared to control (UM-C4 colon tumor cells): reduced tumor size

Structure (SMILES): CCc1c2c(nc3ccc(OC(=O)N4CCC(N5CCCCC5)CC4)cc13)-c1cc3c(c(=O)n1C2)COC(=O)[C@]3(O)CC [Irinotecan]
- tumor growth after treatment cessation on day 56 (OMP-C8 tumor cells): tumor growth continued or accelerated in most animals; also recorded: growth continued after cessation of treatment on day 56 (* arrow) in all but two treated animals
- growth of established colon tumors (C8 cells): reduced tumor volume

Structure (SMILES): C[C@H](NC(=O)Cc1cc(F)cc(F)c1)C(=O)N[C@@H]1C(=O)N(C)c2ccccc2-c2ccccc21 [GSI, reference compound]
- DLL4-induced Notch target gene changes (ratio of HES1:ATOH1) (human DLL4): inhibited DLL4-induced Notch target gene changes
